Data taken from patent US9051310B2, “Nicotinamide derivative or salt thereof” (FUJIFILM Corporation, priority 2011, dated 2015).

Tests used:
[1] = system: THP-1 cells (TNFα secretion on human IgG-coated plate); assay: TNFα generation assay; assay type: cell-based; settings: IFN-γ differentiated THP-1 cells, 7 hours, AlphaLISA, read-out: IC50 of TNFα generation inhibitory activity
Protocol: THP-1 cells (2×10^5 cells/ml), which were human monocytoid cells, were cultured in the presence of 10 ng/ml IFN-γ (Roche) for 2 days, and they were induced to differentiate into macrophage-like cells. The differentiation-induced THP-1 cells were recovered, and the cells (1×10^6 cell/ml) were then allowed to react with a predetermined concentration of test compound at room temperature for 30 minutes. On the other hand, 100 μl of human IgG (10 μg/ml, SIGMA-ALDRICH) diluted with PBS was added to a 96-well plate, and it was then incubated at room temperature overnight. Thereafter, the resultant was washed with PBS twice to produce a human IgG-coated plate. A cell fluid that contained a compound was plated on the obtained human IgG-coated plate (5×10^4 cells/well), and it was then cultured for 7 hours. Thereafter, the cultured solution was recovered, and the amount of TNFα secreted into the culture solution was then measured by the AlphaLISA method (PerkinElmer).

[2] = target: T1, glutathione S-transferase (GST)-linked full-length human Syk protein (Homo sapiens, UniProt P43405); assay: Syk enzyme assay; assay type: biochemical; settings: 0.83 nM Syk, time-resolved fluorescence; read-out: IC50 of Syk-inhibitory activity
T1 construct: glutathione S-transferase (GST)-linked full-length human Syk protein; purchased Carna Biosciences; host or cells: Baculovirus expression system
In short: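 Phosphotyrosine on a biotin-peptide substrate (0.5 μM) was read by time-resolved fluorescence at 615 and 665 nm with Eu-anti-pTyr antibody and APC-streptavidin after 1 h EDTA stop.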

SMILES | IC50 [1] | IC50 [2]
CCn1ncc2cc(Nc3nc(N[C@H](c4cccc(F)c4)[C@H](C)N)c(F)cc3C(N)=O)ccc21 [Example 2-413] | 65 to 130 nM | < 10 nM
COC[C@@H](Nc1nc(Nc2ccc3c(c2)c(C)nn3C)c(C(N)=O)cc1F)[C@H](C)N [Example 2-196, 6-(((2S,3S)-3-amino-1-methoxybutan-2-yl)amino)-2-((1,3-dimethyl-1H-indazol-5-yl)amino)-5-fluoronicotinamide] | 65 to 130 nM | < 10 nM
NC(=O)c1cc(F)c(N[C@@H]2CCCC[C@@H]2N)nc1Nc1cccc(F)c1 [Example 2-440, 6-(((1R,2S)-2-aminocyclohexyl)amino)-5-fluoro-2-((3-fluorophenyl)amino) nicotinamide] | 130 to 200 nM | < 10 nM
NC(=O)c1cc(F)c(N[C@@H]2CCCC[C@@H]2N)nc1Nc1cnc(-n2nccn2)c(F)c1 [Example 2-67, 6-(((1R,2S)-2-aminocyolohexyl)amino)-5-fluoro-2-((5-fluoro-6-(2H-1,2,3-triazol-2-yl)pyridin-3-yl)amino)nicotinamide] | 130 to 200 nM | 10 to 50 nM
CC[C@@H](Nc1nc(Nc2cncc(-n3cc(Cl)cn3)c2)c(C(N)=O)cc1F)[C@H](C)N [Example 2-522, 6-(((2S,3R)-2-aminopentan-3-yl)amino)-2-((5-(4-chloro-1H-pyrazol-1-yl)pyridin-3-yl)amino)-5-fluoronicotinamide] | 130 to 200 nM | 10 to 50 nM
C[C@H](N)[C@H](Nc1nc(Nc2cccc3c2cnn3CC(F)F)c(C(N)=O)cc1F)C1CC1 [Example 2-75, 6-(((1R,2S)-2-amino-1-cyclopropylpropyl)amino)-2-((1-(2,2-difluoroethyl)-1H-indazol-4-yl)amino)-5-fluoronicotinamide] | 130 to 200 nM | < 10 nM
COC[C@@H](Nc1nc(Nc2cc(Cl)c3c(cnn3C)c2)c(C(N)=O)cc1F)[C@H](C)N [Example 2-149, 6-(((2S,3S)-3-amino-1-methoxybutan-2-yl)amino)-2-((7-chloro-1-methyl-1H-indazol-5-yl)amino)-5-fluoronicotinamide] | 65 to 130 nM | < 10 nM
C[C@H](N)[C@H](Nc1nc(Nc2cccc3ncccc23)c(C(N)=O)cc1F)C1CC1 [Example 2-404, 6-(((1R,2S)-2-amino-1-cyclopropylpropyl)amino)-5-fluoro-2-(quinolin-5-ylamino)nicotinamide] | 65 to 130 nM | < 10 nM
COc1nn(C)c2ncc(Nc3nc(N[C@@H]4CCOC[C@@H]4N)c(F)cc3C(N)=O)cc12 [Example 2-334, 6-(((3R,4R)-3-aminotetrahydro-2H-pyran-4-yl)amino)-5-fluoro-2-((3-methoxy-1-methyl-1H-pyrazolo[3,4-b]pyridin-5-yl)amino)nicotinamide] | 130 to 200 nM | < 10 nM
C[C@H](N)[C@H](Nc1nc(Nc2cncc(-n3cccn3)c2)c(C(N)=O)cc1F)C1CCC1 [Example 2-24, 2-((5-(1H-pyrazol-1-yl)pyridin-3-yl)amino)-6-(((1R,2S)-2-amino-1-cyclobutylpropyl)amino)-5-fluoronicotinamide] | 130 to 200 nM | < 10 nM
COc1cccc(Nc2nc(N[C@H](C3CCC3)[C@H](C)N)c(F)cc2C(N)=O)c1 [Example 2-27, 6-(((1R,2S)-2-amino-1-cyclobutylpropyl)amino)-5-fluoro-2-((3-methoxyphenyl)amino)nicotinamide] | 65 to 130 nM | < 10 nM
COC[C@@H](Nc1nc(Nc2ccc3c(c2)c(C)nn3CC(F)F)c(C(N)=O)cc1F)[C@H](C)N [Example 2-139, 6-(((2S,3S)-3-amino-1-methoxybutan-2-yl)amino)-2-((1-(2,2-difluoroethyl)-3-methyl-1H-indazol-5-yl)amino)-5-fluoronicotinamide] | 65 to 130 nM | < 10 nM
CCC[C@@H](Nc1nc(Nc2ccc3c(c2)c(C)nn3CC(F)F)c(C(N)=O)cc1F)[C@H](C)N [Example 2-138] | < 65 nM | < 10 nM
Cc1nn(CC(F)F)c2ccc(Nc3nc(N[C@@H](CN)CC(C)C)c(F)cc3C(N)=O)cc12 [Example 2-137] | 65 to 130 nM | < 10 nM

The next lines start with the values.

IC50 [1] | IC50 [2] | SMILES
65 to 130 nM | < 10 nM | COC[C@@H](Nc1nc(Nc2cc(F)c3c(c2)c(OC)nn3C)c(C(N)=O)cc1F)[C@H](C)N [Example 2-159, 6-(((2S,3S)-3-amino-1-methoxybutan-2-yl)amino)-5-fluoro-2-((7-fluoro-3-methoxy-1-methyl-1H-indazol-5-yl)amino)nicotinamide]
< 65 nM | < 10 nM | Cc1nn(C)c2ccc(Nc3nc(N[C@@H]4CCOC[C@@H]4N)c(F)cc3C(N)=O)cc12 [Example 2-208, 6-(((3R,4R)-3-aminotetrahydro-2H-pyran-4-yl)amino)-2-((1,3-dimethyl-1H-indazol-5-yl)amino)-5-fluoronicotinamide]
65 to 130 nM | < 10 nM | CC[C@H](N)[C@@H](C)Nc1nc(Nc2cncc(C3CC3)c2)c(C(N)=O)cc1F [Example 2-41, 6-(((2R,3S)-3-aminopentan-2-yl)amino)-2-((5-cyclopropylpyridin-3-yl)amino)-5-fluoronicotinamide]
65 to 130 nM | < 10 nM | CC[C@H](N)[C@H](Nc1nc(Nc2ccc3c(cnn3CC)c2)c(C(N)=O)cc1F)C1CC1 [Example 2-362]
65 to 130 nM | < 10 nM | COc1ccc(Nc2nc(N[C@H](C3CCC3)[C@H](C)N)c(F)cc2C(N)=O)cc1OC [Example 2-29]
65 to 130 nM | < 10 nM | NC(=O)c1cc(F)c(N[C@@H]2CCCC[C@@H]2N)nc1Nc1cccc2c1cnn2CC(F)F [Example 2-20, 6-(((1R,2S)-2-aminocyclohexyl)amino)-2-((1-(2,2-difluoroethyl)-1H-indazol-4-yl)amino)-5-fluoronicotinamide]
130 to 200 nM | < 10 nM | COc1nn(C)c2c(F)cc(Nc3nc(N[C@@H]4CCCC[C@@H]4N)c(F)cc3C(N)=O)cc12 [Example 2-150, 6-(((1R,2S)-2-aminocyclohexyl)amino)-5-fluoro-2-((7-fluoro-3-methoxy-1-methyl-1H-indazol-5-yl)amino)nicotinamide]
130 to 200 nM | < 10 nM | CC[C@H](N)[C@@H](C)Nc1nc(Nc2cccc3c2cnn3CCOC)c(C(N)=O)cc1F [Example 2-311, 6-(((2R,3S)-3-aminopentan-2-yl)amino)-5-fluoro-2-((1-(2-methoxyethyl)-1H-indazol-4-yl)amino)nicotinamide]
130 to 200 nM | < 10 nM | CC[C@H](N)[C@@H](CC)Nc1nc(Nc2cccc3c2cnn3CC)c(C(N)=O)cc1F [Example 2-101, 6-(((3R,4S)-4-aminohexan-3-yl)amino)-2-((1-ethyl-1H-indazol-4-yl)amino)-5-fluoronicotinamide]
65 to 130 nM | < 10 nM | NC(=O)c1cc(F)c(N[C@@H]2CCCC[C@@H]2N)nc1Nc1cccc(-n2nccn2)c1 [Example 2-437, 2-((3-(2H-1,2,3-triazol-2-yl)phenyl)amino)-6-(((1R,2S)-2-aminocyclohexyl)amino)-5-fluoronicotinamide]
65 to 130 nM | < 10 nM | CNc1ncc(Nc2nc(N[C@@H]3CCCC[C@@H]3N)c(F)cc2C(N)=O)cc1F [Example 2-273, 6-(((1R,2S)-2-aminocyclohexyl)amino)-5-fluoro-2-((5-fluoro-6-(methylamino)pyridin-3-yl)amino)nicotinamide]
